We go through 15 compounds from patent US6333338A, “Bispiperidines as antithrombotic agents” (Laboratoire L. Lafon, priority 1998, dated 2001).

Structures can show the parent of a compound that is named as a salt. Where two headings read alike, the source gives them in different places.

Assay [1] relates to guinea pig platelets. Briefly: Ex vivo/vitro inhibition of platelet aggregation after administration via the gastric route in guinea pigs. To be noted: Cavia porcellus, Platelet, 10 mg/kg, fasted guinea pigs. More on the design: species or system guinea pig (Dunkin-Hartley). Here is the method: A study of the inhibitory activity of the compounds of formula I on platelet aggregation was carried out in vitro, i.e. by direct contact of solutions of variable concentrations of the compounds with platelets freshly separated from a sample of total blood, taken under standardized conditions, from laboratory animals (guinea pigs) and from healthy human subjects who have not received any substances or drugs that might interfere with blood clotting. The anti-platelet-aggregating activity was also studied ex vivo/vitro, i.e. after administration of the substances claimed to guinea pigs to measure the intensity and duration of the anti-aggregating action induced by the fraction of the test product absorbed and circulating in the blood. Evaluation of the anti-platelet-aggregating activity of the compounds is carried out in the same guinea pigs as those mentioned above (Dunkin-Hartley strain). […] The allocation of the treatments to the animals is random. The blood is taken and then treated under the same conditions as those described above for the in vitro studies. The results of the inhibition of the platelet aggregation obtained for each test concentration make it possible to calculate the IC50 concentration of each test product and the kinetics of the inhibitory effect and its duration of action.

Assay [2] concerns guinea pig platelets. Nature of the assay: In vitro inhibition of collagen-induced platelet aggregation, guinea pig platelets (PRP). The format is cell-based, guinea pig (male Dunkin-Hartley). The following applies: Cavia porcellus, Platelet, 0.05 h, collagen 1 μg/ml, 3 minutes of contact at 37° C. On the procedure:
A study of the inhibitory activity of the compounds of formula I on platelet aggregation was carried out in vitro, i.e. by direct contact of solutions of variable concentrations of the compounds with platelets freshly separated from a sample of total blood, taken under standardized conditions, from laboratory animals (guinea pigs) and from healthy human subjects who have not received any substances or drugs that might interfere with blood clotting. The anti-platelet-aggregating activity was also studied ex vivo/vitro, i.e. after administration of the substances claimed to guinea pigs to measure the intensity and duration of the anti-aggregating action induced by the fraction of the test product absorbed and circulating in the blood.
Blood is taken by intracardiac puncture from male Dunkin-Hartley guinea pigs (weighing about 330 g), at a rate of 4.5 ml per 0.5 ml of trisodium citrate (concentration of the aqueous solution: 1.55%) in order to prevent all trace of clotting. The platelet-rich plasma (PRP) is obtained by centrifuging the tubes of total blood for 15 minutes at 150 g.
The PRPs are collected as "pools". The platelets contained in these pools are counted using a Coulter ZM haematology automatic device: if necessary, a dilution is carried out in order for the platelet concentration in the plasma to be between 200,000 and 400,000 platelets/mm^3. Simultaneously, other samples of these pools serve to prepare the platelet-poor plasma (PPP) by centrifugation at 1500 g for 15 minutes.
The kinetic study of the platelet aggregation is carried out by adding a collagen solution (1 μg/ml) to a volume of PRP, using a Chrono-log Corporation aggregometer (490-D1 or 560 VS) which uses an optical detection of the appearance of the thrombus.
The measurements of the aggregation inhibition are carried out after 3 minutes of contact at 37° C. with agitation.

Setting [3] is: 1 h before blood sampling, read-out: % of g.r. inhibition guinea pig ex vivo, d = 10 mg/kg, 1 h.
Setting [4] is: 2 h before blood sampling, read-out: % of g.r. inhibition guinea pig ex vivo, d = 10 mg/kg, 2 h.

As to `Cc1nc(C)c(S(=O)(=O)NC(CNC(=O)CNC(=O)C(CCC2CCNCC2)CCC2CCNCC2)C(=O)O)s1` (stereo not drawn) [Example 54, 2-{[(2,4-Dimethyl-1,3-thiazol-5-yl)sulphonyl]amino}-3-{[2-({4-(4-piperidyl)-2-[2-(4-piperidyl)ethyl]butanoyl}amino)acetyl]amino}propanoic Acid Dihydrochloride], the inhibition at 10 mg/kg is -40% in the assay on guinea pig platelets [1] (setting [3]) and -15% in the assay on guinea pig platelets [1] (setting [4]). Also, 1300 nM corresponded to half-maximal inhibition in the assay on guinea pig platelets [2] (IC50).

For `Cc1n[nH]c(C)c1S(=O)(=O)NC(CNC(=O)CNC(=O)C(CCC1CCNCC1)CCC1CCNCC1)C(=O)O` (stereo not drawn) [Example 55, 2-{[3,5-Dimethyl-1H-pyrazol-4-yl)sulphonyl]amino}-3-{[2-({4-(4-piperidyl)-2-[2-(4-piperidyl)ethyl]butanoyl}amino)acetyl]amino}propanoic Acid Dihydrochloride], the inhibition at 10 mg/kg in the assay with guinea pig platelets [1] (setting [3]) is -21%; with guinea pig platelets [1] (setting [4]), -17%. Besides, 3500 nM corresponded to half-maximal inhibition in the assay with guinea pig platelets [2] (IC50).

With `O=C(CNC(=O)C(CCC1CCNCC1)CCC1CCNCC1)NC[C@H](NS(=O)(=O)c1cccnc1)C(=O)O` [Example 56, 2-[(3-Pyridylsulphonyl)amino]3-{[2-({4-(4-piperidyl)-2-[2-(4-piperidyl)ethyl]butanoyl}amino)acetyl]amino}propanoic Acid Trihydrochloride], the results for the inhibition at 10 mg/kg in the assay on guinea pig platelets [1] (setting [3]) and in the assay on guinea pig platelets [1] (setting [4]) were -61% and -50%, respectively. In addition, the midpoint of inhibition in the assay on guinea pig platelets [2], the IC50, lay at 230 nM.

On to `O=C(CNC(=O)C(CCC1CCNCC1)CCC1CCNCC1)NC[C@H](NS(=O)(=O)c1ccc2c(c1)OCO2)C(=O)O` [Example 57, 2-[(1,3-Benzodioxol-5-ylsulphonyl)amino]-3-{[2-({4-(4-piperidyl)-2-[2-(4-piperidyl)ethyl]butanoyl}amino)acetyl]amino}propanoic Acid Dihydrochloride], for which the inhibition at 10 mg/kg in the assay on guinea pig platelets [1] (setting [3]) is -38%; with guinea pig platelets [1] (setting [4]), -24%. Further, 830 nM corresponded to half-maximal inhibition in the assay on guinea pig platelets [2] (IC50).

As for `O=C(CNC(=O)C(CCC1CCNCC1)CCC1CCNCC1)NCC(NS(=O)(=O)c1ccc2c(c1)OCCO2)C(=O)O` (stereo not drawn) [Example 58, 2-[(2,3-Dihydro-1,4-benzodioxin-6-ylsulphonyl)amino]-3-{[2-({4-(4-piperidyl)-2-[2-(4-piperidyl)ethyl]butanoyl}amino)acetyl]amino}propanoic Acid Dihydrochloride], the inhibition at 10 mg/kg is -36% with guinea pig platelets [1] (setting [3]) and -21% with guinea pig platelets [1] (setting [4]). Besides, the IC50 (as a rule, the midpoint of a concentration-inhibition curve) in the assay on guinea pig platelets [2] came to 590 nM.

For the compound `Cc1cc(S(=O)(=O)NC(CNC(=O)CNC(=O)C(CCC2CCNCC2)CCC2CCNCC2)C(=O)O)c(C)o1` (stereo not drawn) [Example 60, 2-{[(2,5-Dimethyl-3-furyl)sulphonyl]amino}-3-{[2-({4-(4-piperidyl)-2-[2-(4-piperidyl)ethyl]butanoyl}amino)acetyl]amino}propanoic Acid Dihydrochloride], the values for the inhibition at 10 mg/kg in the assay on guinea pig platelets [1] (setting [3]) and in the assay with guinea pig platelets [1] (setting [4]) were -53% and -32%, respectively. In the assay on guinea pig platelets [2], this compound showed an IC50 of 660 nM.

As for `O=C(CNC(=O)C(CCC1CCNCC1)CCC1CCNCC1)NCC(NS(=O)(=O)c1ccc(C2CCCCC2)cc1)C(=O)O` (stereo not drawn) [Example 61, 2-{[(4-Cyclohexylphenyl)sulphonyl]amino)-3-{[2-({4-(4-piperidyl)-2-[2-(4-piperidyl)ethyl]butanoyl}amino)acetyl]amino}propanoic Acid Dihydrochloride], the inhibition at 10 mg/kg in the assay on guinea pig platelets [1] (setting [3]) is -21%; with guinea pig platelets [1] (setting [4]) it was -9%. Moreover, half-maximal inhibition in the assay on guinea pig platelets [2] (IC50) required 1400 nM.

As to `O=C(CNC(=O)C(CCC1CCNCC1)CCC1CCNCC1)NCC(NS(=O)(=O)c1ccc(F)c2ccccc12)C(=O)O` (stereo not drawn) [Example 62, 2-{[(4-Fluoro-1-naphthyl)sulphonyl]amino}-3-{[2-({4-(4-piperidyl)-2-[2-(4-piperidyl)ethyl]butanoyl}amino)acetyl]amino}propanoic Acid Dihydrochloride], the inhibition at 10 mg/kg in the assay on guinea pig platelets [1] (setting [3]) was -69%; with guinea pig platelets [1] (setting [4]), -33%. For the same compound, the midpoint of inhibition with guinea pig platelets [2], the IC50, lay at 95 nM.

Take `O=C(CNC(=O)C(CCC1CCNCC1)CCC1CCNCC1)NCC(NS(=O)(=O)c1ccc2c(c1)CCO2)C(=O)O` (stereo not drawn) [Example 64, 2-[(2,3-Dihydro-1-benzofuran-5-ylsulphonyl)amino]-3-{[2-({4-(4-piperidyl)-2-[2-(4-piperidyl)ethyl]butanoyl}amino)acetyl]amino}propanoic Acid Dihydrochloride]: the inhibition at 10 mg/kg is -65% with guinea pig platelets [1] (setting [3]) and -5% in the assay on guinea pig platelets [1] (setting [4]). Also, the IC50 in the assay on guinea pig platelets [2] turned out to be 370 nM.

`O=C(CNC(=O)C(CCC1CCNCC1)CCC1CCNCC1)NC[C@H](NS(=O)(=O)c1ccc(-c2cccs2)cc1)C(=O)O` [Example 65, 2-({[4-(2-Thienyl)phenyl]sulphonyl}amino) 3-{[2-({4-(4-piperidyl)-2-[2-(4-piperidyl)ethyl]butanoyl}amino)acetyl]amino}propanoic Acid Dihydrochloride]: the inhibition at 10 mg/kg is -65% in the assay on guinea pig platelets [1] (setting [3]) and -12% in the assay on guinea pig platelets [1] (setting [4]). Moreover, in the assay with guinea pig platelets [2], 200 nM corresponded to half-maximal inhibition (IC50).

For the compound `O=C(CNC(=O)C(CCC1CCNCC1)CCC1CCNCC1)NCC(NS(=O)(=O)c1ccccc1-c1cccs1)C(=O)O` (stereo not drawn) [Example 66, 2-({[2-(2-Thienyl)phenyl]sulphonyl}amino) 3-{[2-({4-(4-piperidyl)-2-[2-(4-piperidyl)ethyl]butanoyl}amino)acetyl]amino}propanoic Acid Dihydrochloride], the inhibition at 10 mg/kg was -18% in the assay with guinea pig platelets [1] (setting [3]) and 0% in the assay on guinea pig platelets [1] (setting [4]). For the same compound, half-maximal inhibition in the assay with guinea pig platelets [2] (IC50) required 350 nM.

As for `O=C(CNC(=O)C(CCC1CCNCC1)CCC1CCNCC1)NCC(NS(=O)(=O)c1cc2ccccc2o1)C(=O)O` (stereo not drawn) [Example 68, 2-[(1-Benzofuran-2-ylsulphonyl)amino]-3-{[2-({4-(4-piperidyl)-2-[2-(4-piperidyl)ethyl]butanoyl}amino)acetyl]amino}propanoic Acid Dihydrochloride], the values for the inhibition at 10 mg/kg with guinea pig platelets [1] (setting [3]) and with guinea pig platelets [1] (setting [4]) were -72% and -71%, respectively. Moreover, the midpoint of inhibition in the assay with guinea pig platelets [2], the IC50, lay at 180 nM.

`O=C(CNC(=O)C(CCC1CCNCC1)CCC1CCNCC1)NCC(NS(=O)(=O)Cc1ccc2ccccc2c1)C(=O)O` (stereo not drawn) [Example 69, 2-{[(2-Naphthylmethyl)sulphonyl]amino}-3-{[2-({4-(4-piperidyl)-2-[2-(4-piperidyl)ethyl]butanoyl}amino)acetyl]amino}propanoic Acid Dihydrochloride]: the results for the inhibition at 10 mg/kg in the assay on guinea pig platelets [1] (setting [3]) and in the assay with guinea pig platelets [1] (setting [4]) were -69% and -3%, respectively. In addition, in the assay on guinea pig platelets [2], it took 1900 nM to reach half-maximal inhibition (IC50).

For the compound `O=C(CNC(=O)C(CCC1CCNCC1)CCC1CCNCC1)NCC(NS(=O)(=O)c1ccc2c(c1)CCC2)C(=O)O` (stereo not drawn) [Example 70, 2-[(2,3-Dihydro-1H-inden-5-ylsulphonyl)amino]-3-{[2-({4-(4-piperidyl)-2-[2-(4-piperidyl)ethyl]butanoyl}amino)acetyl]amino}propanoic Acid Dihydrochloride], the inhibition at 10 mg/kg with guinea pig platelets [1] (setting [3]) was -32%; in the assay with guinea pig platelets [1] (setting [4]), -34%. Further, the IC50 in the assay on guinea pig platelets [2] worked out at 400 nM.

In the case of `O=C(CNC(=O)C(CCC1CCNCC1)CCC1CCNCC1)NCC(NS(=O)(=O)c1ccc2c(c1)CCCC2)C(=O)O` (stereo not drawn) [Example 72, 2-[(5,6,7,8-Tetrahydro-2-naphthalenylsulphonyl)amino]3-{[2-({4-(4-piperidyl)-2-[2-(4-piperidyl)ethyl]butanoyl}amino)acetyl]amino}propanoic Acid Dihydrochloride], the inhibition at 10 mg/kg with guinea pig platelets [1] (setting [3]) is -60%; in the assay with guinea pig platelets [1] (setting [4]) it was -67%. In the assay with guinea pig platelets [2], this compound gave a concentration for half-maximal inhibition (IC50) of 340 nM.
